Results on 6 compounds are retold here after patent US5728685A, “Methods of treating inflammation using cell adhesion inhibitors” (Glycomed Incorporated, priority 1995, dated 1998).

The subject of test [1] is E-SELECTIN (E Selectin-IgG chimera). The experiment in a line: ELISA: inhibition of E-selectin binding to 2,3 sLex glycolipid. An excerpt: (§1) E-SELECTIN transfected COS cells produced by the above method may be used to assay for glucuronyl glycolipid ligands. Similarly, COS cells may be transfected with cDNAs that encode L-SELECTIN and/or P-SELECTIN. The production and characterization of L-SELECTIN IgG chimera constructs have been previously described by Watson S. R. et al., (1990) J. Cell Biol. 110:2221-2229. This chimera contains two complement binding domains, consistent with its natural expression. See Watson S. R. et al., (1991) J. Cell Biol. 115:235-243. P-SELECTIN chimera was constructed in a similar manner as described by Walz, G., et al (1990) Science 250, 1132-1135, and Aruffo, A. et al. (1991) Cell, 67, 35-44, respectively. The chimeras may be expressed in a suitable host cell, for example, 293 cells and purified. Protein A affinity chromatography is the preferred method of purification. E-SELECTIN and P-SELECTIN may be constructed with truncated complement binding domains to standardize the size of the chimeras and to facilitate their secretion. A variation of the above assay is to genetically engineer cells to express high levels of L-SELECTIN, E-SELECTIN, or P-SELECTIN on their surface, and to use the cells in lieu of purified selectin. Radiolabeled COS cells have been used in this type of assay, and can be transfected with cDNA that encodes for L-SELECTIN, E-SELECTIN or P-SELECTIN. […] The number of adherent cells reflects the capacity of the ligand to bind to the selectin.
(§2) Compounds 13a, 13b, 26 and 31 were tested for their capacity to bind to E, L and P selectin. The ELISA assay used consists of evaporating 2,3 sLex glycolipid, at 25 picomoles per well, onto microtiter wells, and then washing the excess off with water. The wells are blocked with 5% BSA at room temperature for an hour and then washed with PBS containing 1 mM Ca. While the plate is being blocked, biotin labelled goat F(ab')2 IgG (Fc specific) and streptavidinalkaline phosphatase diluted 1:1500 in 1% BSA-PBS (1 mM Ca) are combined with either the E, L or P Selectin-IgG chimera (L91-10) at 200 ng/mL and incubated at 37° C. for 15 minutes to allow a complex to form. This provides a soluble "multivalent" receptor. Compounds 13a and 13b were added at final concentrations ranging from 1.5 to 5.0 mM to the soluble receptor and allowed to react at 37° C. for 45 minutes. The solutions were then placed in the microtiter wells that had been washed after being blocked, and the plates incubated at 37° C. for 45 minutes to allow the soluble receptor to bind to the known natural ligand, 2,3 sLex glycolipid. The positive control was the signal produced by soluble "multivalent" receptor reacted with only the ligand evaporated to the microtiter well. This was considered "100% binding." The signal produced by receptor previously reacted with inhibitor is divided by the signal produced by the positive control, multiplied by 100, to calculate % receptor bound in the presence of the inhibitor. The reciprocal of this is % inhibition.
Background: ELISA stands for enzyme-linked immunosorbent assay.

Test [2] has as its system L-SELECTIN (L Selectin-IgG chimera). The experiment in a line: ELISA: inhibition of L-selectin binding to 2,3 sLex glycolipid.
Excerpt: as §1
as §2, with “Compounds 13a and 13b were added at final concentrations ranging from 1.5 to 5.0 mM to the soluble receptor and allowed to react at 37° C. for 45 minutes.” left out

The subject of test [3] is neutrophil-dependent injury to the lung endothelium and alveolar epithelium. Description: Acute Lung Injury Assay (acid aspiration injury). The following applies: 10 mg/kg/hr IV; for Alveolar-arterial blood oxygen gradient: as compared to control animals. It counts as in vivo, New Zealand White rabbits. An excerpt:
Experiments were done to determine the effectiveness of compounds 13b or 31 in their ability to reduce neutrophil-dependent injury to the lung endothelium and alveolar epithelium following acid aspiration injury.
Female New Zealand White rabbits (1 each/group, approx. 2 KG each) were anesthetized with halothane and ventilated with positive pressure ventilation supplemented with oxygen. Vascular catheters were placed in the carotid artery, into the internal jugular vein, and a tracheostomy was made for positive pressure ventilation. A low pH solution (HCl, pH 1.5) was installed in Ringer's lactate (osmolality=approximately 100) at a dose of 3 ml/kg into the trachea to stimulate a gastric aspiration induced lung injury. Compound 13b or 31 were injected (10 mg/kg/hr IV) 5 minutes prior to intratracheal instillation of the low pH solutions continued by hourly injections until the end of the experiment. Appropriate controls were used. An intravascular as well as an intra-alveolar radiolabelled protein tracer was injected to quantify lung endothelial and alveolar epithelial protein permeability. Arterial blood gases, systemic blood pressure and airways were monitored. At the end of 6 hours the lungs were removed and alveolar fluid was sampled from both lungs in order to measure the concentration of native protein as well as radiolabelled proteins in the airspaces to calculate lung vascular and lung epithelial permeability. Also, one lung was lavaged in order to count the neutrophils that are present in the airspaces of the lungs. Extravascular lung water measurements was done on the lung which was not lavaged. Histological samples were taken from selected portions of the lung.

Test [4] deals with adhesion of human neutrophils in the rabbit isolated heart. Description: Reperfusion Injury Assay: complement-induced neutrophil adhesion in isolated perfused heart. The arrangement: species or system human neutrophils; New Zealand White rabbit heart. An excerpt:
Experiments were done to determine the effectiveness of compound 13b in decreasing adhesion of human neutrophils in the rabbit isolated […]. Addition of the human plasma to the rabbit isolated […] results in activation of the complement components found within the plasma, which in turn promotes an increase in the neutrophil accumulation. This model is used to determine the effect of lactose derivatives on inhibiting complement-induced neutrophil adhesion.
Hearts from New Zealand White rabbits were excised, mounted on a modified Langendorff apparatus and perfused with Krebs-Heinseleit buffer. Cardiac functional parameters were monitored upon a Grass Model 79D polygraph machine. 4% normal human plasma (NHP) was added to the recirculating buffer. Ten minutes after the addition of the plasma, 13b (0.1 mg/ml) was added to the perfusate. After 15 minutes of perfusion with the plasma, 51-chromium labelled human neutrophils (1×10^5 /ml) were added to the perfusate and allowed to recirculate for an additional 15 minutes. At the end of this time the hearts were washed with fresh buffer to remove non-specifically bound neutrophils, dried and counted in a well type gamma-counter. A concentration response curve was generated using concentrations of 0.001, 0.01 and 0.1 mg/ml. Six hearts were used for each of these concentrations.
Table 4 lists the results, expressed as the percent inhibition of neutrophil accumulation.

The subject of test [5] is P-SELECTIN (P Selectin-IgG chimera). The experiment in a line: ELISA: inhibition of P-selectin binding to 2,3 sLex glycolipid.
Excerpt: as §1, §2

The test system of the next test is L-Selectin. The following applies: cited from earlier work.
The test system of another test is P-SELECTIN
The following applies: cited from earlier work.

With `C[C@@H]1O[C@@H](O[C@@H]2[C@@H](O)[C@H](OCC[Si](C)(C)C)O[C@H](CO)[C@H]2O[C@@H]2O[C@H](CO)[C@H](O)[C@H](OS(=O)(=O)O)[C@H]2O)[C@@H](O)[C@H](O)[C@@H]1O` [Compound 13a, 2-(Trimethylsilyl) ethyl O-α-L-fucopyranosyl-(1→3)-O-[sodium-β-D-galactopyranosyl3-sulfate-(1→4)]-β-D-glucopyranoside], the “inhibition of binding of E selectin to 2,3 sLex glycolipid (in words)” value (shortened to “inhibition of binding of E selectin”) in test [1] is on record as “inhibit binding of E selectin to 2,3 sLex glycolipid”. Further, the “% INHIBITION of E-selectin binding to sLeX” value in test [1] (1.25 mM) is 30%; in test [1] (2.5 mM), 34%; in test [1] (5.0 mM), 48%. For the same compound, the “inhibition of binding of L selectin to 2,3 sLex glycolipid (in words)” value (from here on “inhibition of binding of L selectin”) in test [2] was “inhibit binding of L selectin”. The “% INHIBITION of L-selectin binding to sLeX” value is 13% in test [2] (1.25 mM), 27% in test [2] (2.5 mM) and 47% in test [2] (5.0 mM).

In the case of `C[C@@H]1O[C@@H](O[C@H]2[C@H](O[C@@H]3O[C@H](CO)[C@H](O)[C@H](OS(=O)(=O)O)[C@H]3O)[C@@H](CO)OC(O)[C@@H]2O)[C@@H](O)[C@H](O)[C@@H]1O` (stereo partly drawn) [Compound 13b, O-α-L-fucopyranoayl-(1→3)-O-[sodium β-D-galactopyranosyl 3-sulfate-(1→4)]-D-glucopyranose], the “inhibition of binding of E selectin” value in test [1] was “inhibit binding of E selectin to 2,3 sLex glycolipid”. Further, the “% INHIBITION of E-selectin binding to sLeX” value in test [1] (1.25 mM) is on record as 48.5%; in test [1] (2.5 mM), 45.4%; in test [1] (5.0 mM), 82.5%. In test [2], the “inhibition of binding of L selectin” value is “inhibit binding of L selectin”. Moreover, the “% INHIBITION of L-selectin binding to sLeX” value in test [2] (1.25 mM) was 90%; in test [2] (2.0 mM), 100%; in test [2] (2.5 mM), 100%. Moreover, the “Alveolar-arterial blood oxygen gradient” value in test [3] is on record as “decrease”. In addition, the “degree of inhibition of neutrophil adhesion (in words)” value in test [4] (0.1 mg/ml) is “most significant degree of inhibition”. Also, in test [4] (0.001, 0.01 and 0.1 mg/ml), the “inhibition of neutrophil adhesion (in words)” value is on record as “inhibited neutrophil adhesion in a concentration-dependent manner”. Moreover, the inhibition (as a rule, the share of the control response that was lost under treatment) at 100 µg/mL in test [4] (Neutrophil, Table 4, 13b (0.1 mg/ml) added to the perfusate, read-out: % Neutrophil Inhibition (percent inhibition of neutrophil accumulation)) was found to be 35%.

Consider `CCCCCCCCO[C@@H]1O[C@H](CO)[C@@H](O[C@@H]2O[C@H](CO)[C@H](O)[C@H](OS(=O)(=O)O)[C@H]2O)[C@H](O[C@@H]2O[C@@H](C)[C@@H](O)[C@@H](O)[C@@H]2O)[C@H]1O` [Compound 26], for which the “inhibition of binding of E selectin” value in test [1] is “inhibit binding of E selectin to 2,3 sLex glycolipid”. Further, the “% INHIBITION of E-selectin binding to sLeX” value in test [1] (0.5 mM) is 0%; in test [1] (1.0 mM), 30%; in test [1] (2.0 mM) it was 50%; in test [1] (4.0 mM) it was 70%. For the same compound, the “% INHIBITION of L-selectin binding to sLeX” value is reported as 0% in test [2] (0.5 mM), 30% in test [2] (1.0 mM), 30% in test [2] (2.0 mM) and 30% in test [2] (4.0 mM). In addition, the “% INHIBITION of P-selectin binding to sLeX” value in test [5] (0.5 mM) stood at 0%; in test [5] (1.0 mM), 20%; in test [5] (2.0 mM) it was 40%; in test [5] (4.0 mM) it was 45%. The “inhibition of P selectin binding to 2,3 sLex glycolipid (in words)” value in test [5] (as compared to L-selectin) is recorded as “better inhibitor of P selectin (as compared to L-selectin)”.

With `CCCCCCCCO[C@@H]1O[C@H](CO)[C@@H](O[C@@H]2O[C@H](CO)[C@H](O)[C@H](OS(=O)(=O)O)[C@H]2O)[C@H](O)[C@H]1O` [Compound 31, Octyl 4-O-(sodium β-D-galactopyranosyl 3-sulfate)-β-glucopyranoside], in test [1], the “inhibition of binding of E selectin” value is “inactive”. Further, the “% INHIBITION of E-selectin binding to sLeX” value in test [1] (0.5 mM), in test [1] (1.0 mM), in test [1] (2.0 mM) and in test [1] (4.0 mM) was 0% each time. Further, in test [2], the “inhibition of binding of L selectin” value is “inactive”. Moreover, the “% INHIBITION of L-selectin binding to sLeX” value in test [2] (0.5 mM), in test [2] (1.0 mM), in test [2] (2.0 mM) and in test [2] (4.0 mM) was 0% in each case. In test [3], the “Alveolar-arterial blood oxygen gradient” value is listed as “decrease”. In addition, in test [3] (following acid aspiration injury), the “neutrophil-dependent injury to the lung endothelium and alveolar epithelium” value is “effectively reduced neutrophil-dependent injury”.

As to `CC(=O)NC1C(O)CC(OC2C(O)C(CO)OC(OC3C(CO)OC(O)C(NC(C)=O)C3OC3OC(C)C(O)C(O)C3O)C2O)(C(=O)O)OC1C(O)C(O)CO` (stereo not drawn) [sialyl Lewis X, NeuNAc α2-3-Gal-β1-4(Fucα1-3)-GlcNAc], the “binding to L-Selectin” value in the test on L-Selectin was “binds”.

Take sulfatides: the “binding to P-Selectin” value with P-SELECTIN is on record as “bind”.
